For 23 compounds, IC50 results are on record in patent publication US20260097047A1, “Small molecule inhibitors of the ribosome biogenesis factor NVL2” (Board of Regents, The University of Texas System, priority 2023, published 2026).

Structures are written as SMILES. Where two headings read alike, the source gives them in different places. Bounds are passed on as bounds.

The test system of this assay is HCT116 cells. Description: Cell viability assay (CellTiter-Glo, 72 hours) in HCT116 human colorectal cancer cells. In kind it is cell-based. The method, boiled down: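 Ten-point IC50 came from an asymmetric five-parameter fit of luminescence corrected to vehicle wells. ATP content was measured by CellTiter-Glo 72 h after dosing at 37 °C. Cells were seeded at 2,000/well the day before, with 0.5% DMSO in all wells.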
A general note: In ATP-based viability assays light output follows the ATP content of the culture.

The mark [1] stands for this setting: Table 9, HCT116, 72 hours, read-out: Activity.
The mark [2] stands for this setting: Table 8, analogs of scaffold drawing 43 defined by R^2, R^3, X/Y, W, read-out: Activity (IC50 class, cell viability assay).
Setting [3] is: Homo sapiens, HCT-116, Table 5, HCT116, 72 hours, read-out: Activity.
Where [4] appears, read: Table 7, cell viability assay, CellTiter-Glo, 72 hours, scaffold drawing 42 with R^2, R^3, X/Y, Z, read-out: Activity.

For the compound `COC12CC(C(=O)Nc3ccc4c(c3)C(C#N)c3ccccc3C(=O)N4CC#CC3CC3)(C1)C2` (centres unmarked), under setting [1], the IC50 is < 500 nM.

With `CC#CCN1C(=O)c2ccc(Cl)cc2Sc2cc(NC(=S)C34CC(OC)(C3)C4)ccc21`, the IC50 (cell viability assay, Table 10 analogs of scaffold drawing 45 defined by R2, R3, X/Y, W, read-out: Activity) was < 500 nM.

In the case of `CC#CCN1C(=O)c2ccc(Cl)cc2Sc2cc(NC(=O)[C@H]3C[C@@H](OC)C3)ccc21` [—CH2CCMe; cis-3-MeOcBu; CCI/CH; CH], the IC50 under setting [2] was < 500 nM.

On to `CC#CCN1C(=O)c2ccc(F)cc2Sc2cc(NC(=O)c3ccc4oc(=O)n(C)c4c3)ccc21`, for which the IC50 under setting [2] was < 500 nM.

For `CCC/C=C/CN1C(=O)c2ccccc2Sc2cc(Nc3nccnc3OC)ccc21` [(E)-10-(Hex-2-en-1-yl)-7-((3-methoxypyrazin-2-yl)amino)dibenzo[b,f][1,4]thiazepin-11 (10H)-one], the IC50 under setting [3] fell in the range of 500 to 1000 nM.

In the case of `CC#CCN1C(=O)c2ccc(Cl)cc2Sc2cc(NC(=S)N3CCC3)ccc21`, the IC50 (Table 2, HCT116, 72 hours, read-out: Activity) was < 500 nM.

Regarding `CC#CCN1C(=O)c2ccccc2C(C)c2cc(NC(=O)C3CC4(CC(=NO)C4)C3)ccc21` (centres unmarked), the IC50 under setting [1] is < 500 nM.

Regarding `CO[C@H]1C[C@H](C(=O)Nc2ccc3c(c2)Sc2ccc(F)cc2C(=O)N3CC#CCF)C1` [—CH2CCCH2F; trans-3-MeOcBu; CH/CF; CH], the IC50 under setting [2] was < 500 nM.

Take `COCCN1C(=O)c2ccccc2Sc2cc(NC(=O)c3ccc(OCF)cc3)ccc21` [—(CH2)2OMe; 4-FH2COPh; CH/CH; S]: the IC50 under setting [4] is < 500 nM.

As for `COCCN1C(=O)c2ccccc2Sc2cc(NC(=O)c3ccncn3)ccc21` [—(CH2)2OMe; pyrimidin-4-yl; CH/CH; S], under setting [4], the IC50 is 1000 to 5000 nM.

In the case of `CCC/C=C/CN1C(=O)c2ccccc2Sc2cc(Nc3nccnc3C#N)ccc21` [(E)-3-((10-(Hex-2-en-1-yl)-11-oxo-10,11-dihydrodibenzo[b,f][1,4]thiazepin-7-yl)amino) pyrazine-2-carbonitrile], under setting [3], the IC50 fell in the range of 500 to 1000 nM.

For `CC#CCN1C(=O)c2cc(F)ccc2Sc2cc(NC(=O)C3CCOC3)cnc21` (centres unmarked) [—CH2CCMe; tetrahydrofuran-3-yl; CH/CF; N], the IC50 under setting [2] was < 500 nM.

For the compound `CC#CCN1C(=O)c2cc(F)ccc2Sc2cc(NC(=O)[C@H]3C[C@H](OC)C3)cnc21` [—CH2CCMe; trans-3-MeOcBu; CH/CF; N], the IC50 under setting [2] was < 500 nM.

For `CC#CCN1C(=O)c2ccccc2Sc2cc(NC(=O)C3CNC(=O)C3)ccc21` (centres unmarked) [—CH2CCMe; 5-oxopyrrolidin-3-yl; CH/CH; CH], the IC50 under setting [2] was < 500 nM.

In the case of `C#Cc1ccc(C(=O)Nc2ccc3c(c2)Sc2ccccc2C(=O)N3CCOC)cn1` [—(CH2)2OMe; 6-(HCC)pyrid-3-yl; CH/CH; S], the IC50 under setting [4] was 1000 to 5000 nM.

For `CC#CCN1C(=O)c2ccccc2Sc2cc(NC(=O)N3CCC3)ccc21` [Table 1: —CH2CCMe; azetidin-1-yl; CH; CH, N-(10-(But-2-yn-1-yl)-11-oxo-10,11-dihydrodibenzo[b,f][1,4]thiazepin-7-yl) azetidine-1-carboxamide], the IC50 (Homo sapiens, HCT-116, Table 1, HCT116, 72 hours, read-out: Activity) is < 500 nM.

For the compound `COCCN1C(=O)c2ccccc2Sc2cc(NC(=O)c3ccc(OC)cc3F)ccc21` [—(CH2)2OMe; 2-F,4-MeOPh; CH/CH; S], the IC50 under setting [4] is 500 to 1000 nM.

Take `COC1CC(C(=O)Nc2ccc3c(c2)C(C#N)c2ccccc2C(=O)N3CC#CC2CC2)C1` (stereo not drawn) [Table 9: —CH2CC°Pr; trans-3-MeOcBu; CHCN]: under setting [1], the IC50 was < 500 nM.

For `C#CCN1C(=O)c2ccccc2Sc2cc(Nc3ncc(C)nc3C)ccc21`, the IC50 (Table 5, HCT116, 72 hours, read-out: Activity) is < 500 nM.

On to `COCC1CC(C(=O)Nc2cnc3c(c2)Sc2ccccc2C(=O)N3CC#CC2CC2)C1` (centres unmarked) [—CH2CC^cPr; 3-MeOCH2-cBu; CH/CH; N], for which the IC50 under setting [2] is < 500 nM.

On to `CC#CCN1C(=O)c2ccc(Cl)cc2Sc2cc(NC(=O)OCCOC)ccc21` [—CH2CCMe; O(CH2)2OMe; CCl/CH; CH], for which the IC50 under setting [2] is < 500 nM.

On to `CC#CCN1C(=O)c2ccccc2Sc2cc(NC(=O)N3CCCC3)cnc21`, for which the IC50 (Table 1, HCT116, 72 hours, read-out: Activity) was < 500 nM.

Turning to `C#CCN1C(=O)c2ccc(Cl)cc2Sc2cc(NC(=O)[C@@H]3C[C@H]3CO)ccc21` (relative stereo) [—CH2CCH; trans-2-HOCH2-cPr; CCI/CH; CH], the IC50 under setting [2] is < 500 nM.
